Data published in US20130150346A1, “Use of FAAH Inhibitors for Treating Parkinson's Disease and Restless Legs Syndrome” (Ironwood Pharmaceutical, Inc., priority 2010, published 2013).

Assays:
[1] = Plasma L-DOPA levels by LC-MS/MS in MPTP-lesioned marmosets; type: in vivo, common marmosets (Callithrix jacchus); conditions: URB597 10 mg/kg p.o., 2 h post L-DOPA, 4 h post URB597, p>0.05, paired t-test
Experimental: Six common marmosets (Callithrix jacchus; female; weight, 350-500 g (Harlan, Madison, Wis., USA)) were kept under conditions of controlled temperature (25±2° C.) and a 12-hour light/dark cycle (lights on 6:30 a.m.). Animals were group housed and had access to food, fresh-fruit supplements and water ad libitum and their home cage environment was enriched with primate toys, perches and auditory stimuli. Prior to start of studies, animals were acclimatized to handling, blood collection and administration of treatments (oral syringe feeding and subcutaneous injection) as well as transfer to observation cages for assessment of behavior. A parkinsonian syndrome was induced by once-daily subcutaneous administration of MPTP hydrochloride (Sigma, Canada; 2 mg/kg base concentration in 0.9% saline) for 5 consecutive days. Following this, animals were allowed to recover for 12 weeks to allow parkinsonian symptoms to develop and stabilize. […] Treatment-related complications including dyskinesia and psychosis-like behaviors were evoked by twice-daily treatment with L-DOPA p.o. (as Prolopa®, Roche Canada, Ontario, equivalent to 15 mg/kg L-DOPA and 3.5 mg/kg benserazide) for a minimum of 30 days. […]
The effect of oral treatment with either vehicle or URB597 (10 mg/kg) on plasma levels of L-DOPA was assessed at the beginning of the period of peak L-DOPA effect, i.e., 2 h after L-DOPA administration. […]

MPTP-lesioned marmosets = test: Motor activity (passive infra-red sensors: total activity, high activity counts and time) in MPTP-lesioned marmosets; type: in vivo, common marmosets (Callithrix jacchus)
Experimental: Six common marmosets (Callithrix jacchus; female; weight, 350-500 g (Harlan, Madison, Wis., USA)) were kept under conditions of controlled temperature (25±2° C.) and a 12-hour light/dark cycle (lights on 6:30 a.m.). Animals were group housed and had access to food, fresh-fruit supplements and water ad libitum and their home cage environment was enriched with primate toys, perches and auditory stimuli. Prior to start of studies, animals were acclimatized to handling, blood collection and administration of treatments (oral syringe feeding and subcutaneous injection) as well as transfer to observation cages for assessment of behavior. A parkinsonian syndrome was induced by once-daily subcutaneous administration of MPTP hydrochloride (Sigma, Canada; 2 mg/kg base concentration in 0.9% saline) for 5 consecutive days. Following this, animals were allowed to recover for 12 weeks to allow parkinsonian symptoms to develop and stabilize. […] Treatment-related complications including dyskinesia and psychosis-like behaviors were evoked by twice-daily treatment with L-DOPA p.o. (as Prolopa®, Roche Canada, Ontario, equivalent to 15 mg/kg L-DOPA and 3.5 mg/kg benserazide) for a minimum of 30 days. […] Disord. 21:839-846; Visanji et al. (2008) Mov. Disord. 23:1922-1925; Visanji et al (2009) Neurobiol Dis. 35: 184-192]. After this time, the animals were used in several studies to evaluate potential anti-parkinsonian and anti-dyskinetic agents. A minimum period of two weeks was allowed between completing any prior study and commencing this study, a period in excess of ten half-lives since administration of any previously employed experimental drug. Throughout the course of the study, on days not requiring plasma sampling or behavioral observations, animals were treated once daily with oral L-DOPA therapy, given at 10:00 a.m. to maintain stable levels of complications. Marmosets treated with MPTP as described in this example are referred to as MPTP-lesioned marmosets.
To assess the effect of treatment on plasma FAAH substrate level, total activity, high activity time and count, data were analyzed using a parametric repeated-measures (RM) 1-way analysis of variance (ANOVA) followed by a Student Newman-Keuls Multiple Comparison post hoc test. To assess the effect of treatment on plasma L-DOPA level a paired, two-tailed t-test was used. All FAAH (AEA, OEA, PEA) subbstrate and L-DOPA plasma level data and activity data are presented as the group mean and SEM For measures of parkinsonian disability, dyskinesia and psychosis, data were analyzed via Friedman's test with Dunn's Multiple Comparison post hoc test. […] In all cases, p<0.05 was taken to represent a significant difference.
MPTP hydrochloride (Sigma, Canada) was dissolved in 0.9% NaCl sterile solution to a concentration of 0.2 mg/ml (freebase) and administered at 1 ml/kg. Maintenance L-DOPA, administered as Prolopa® capsules (Roche, Mississauga, ON, Canada) containing 50 mg L-DOPA and 12.5 mg benserazide (freebase) was dissolved in Gatorade sports beverage (The Gatorade Company, Chicago, Ill.) prior to oral administration by syringe at a volume of 10 ml/kg. On days of behavioral assessment, L-DOPA (20 mg/kg, freebase) was prepared from the methyl ester form (Sigma, Canada) in combination with benserazide hydrochloride (5 mg/kg, freebase, Sigma, Canada) dissolved in 0.9% sterile saline containing 0.1% ascorbate (Sigma, Canada) and 0.05% absolute ethanol. URB597 (Cayman Chemical, Ann Arbor, Mich.) was formulated in a vehicle containing 50% corn oil (Professional Compounding Centers of America (PCCA), Houston, Tex.) and 50% nutritional drink Ensure™ (Abbott Nutrition, Chicago, Ill.) to make the suspension palatable for marmoset oral dosing. Requisite amounts of URB597 were weighed into sterile 50 ml polypropylene tubes (for the 3, 10, 30 and 60 mg/kg doses, 12, 40, 120 and 240 mg were weighed respectively). Then, 10 ml Corn oil was added and mixed until homogenous.

MPTP-lesioned macaques = test: Motor activity (total activity, high activity time and counts) in MPTP-lesioned macaques treated with URB597 and L-DOPA; type: in vivo, cynomolgus monkeys (Macaca fascicularis)
[2] = URB597 10 mg/kg p.o. + L-DOPA 20 mg/kg s.c., 2-4 h, p<0.05
[3] = URB597 10 mg/kg p.o. + L-DOPA 20 mg/kg s.c., 2-4 h, p>0.05

In the case of `NC(=O)c1cccc(-c2cccc(OC(=O)NC3CCCCC3)c2)c1` [URB597], the “effect of URB597 on plasma L-DOPA levels” value [1] was “did not alter”, the “reduction of L-DOPA-induced total activity compared to L-DOPA alone” value (MPTP-lesioned marmosets; [2]) was 32% and the “reduction of high activity counts evoked by L-DOPA” value (MPTP-lesioned marmosets; [2]) was 52%. For the same compound, the “reduction of high activity time evoked by L-DOPA” value (MPTP-lesioned marmosets; [2]) was 48%, the “high activity counts and high activity time compared to normal, unlesioned animals” value (MPTP-lesioned marmosets; [3]) was “not significantly different” and the “total activity relative to normal, un-lesioned animals” value (MPTP-lesioned marmosets; [3]) was 119 % of normal. The “time after which total activity counts were no longer significantly different compared to vehicle (s.c.)-treated animals” value (MPTP-lesioned marmosets; URB597 10 mg/kg p.o. + L-DOPA 20 mg/kg s.c., 6 h time course) was 2.5 h, the “effect on total activity and high activity cf. vehicle” value (MPTP-lesioned marmosets; URB597 10 mg/kg p.o. given alone (vehicle s.c.), p>0.05) was “did not modify” and the total activity counts (MPTP-lesioned marmosets; URB597 10 mg/kg p.o. in combination with L-DOPA 20 mg/kg s.c., 2-4 h, mean±SEM, n=6) was 1879±332 counts. For the same compound, the “total activity counts, high activity time and high activity counts compared to normal macaques” value (MPTP-lesioned macaques; L-DOPA/URB597 (0.1 ml/kg as printed, i.v.), between 2 and 3 h after L-DOPA) was “significantly higher” and the “total activity and high activity count compared to L-DOPA alone treatment” value (MPTP-lesioned macaques; URB597 0.3 mg/ml (so in the source) i.v. + L-DOPA p.o., 2-3 h post L-DOPA, p<0.05) was “significantly lower”.
